One assay concerns DLD-1. Description: MTS assay, DLD-1 cells. Format: cell-based. The following applies: Homo sapiens, 72 hours, read-out: DLD-1, MTS cell kill % inhibition. As for the experimental part: (§1) Cells were maintained at 37° C., 5% CO2 in DMEM media supplemented with 1% fetal bovine serum, penicillin/streptomycin and fungizone (Invitrogen). Cells were seeded into 96-well tissue culture plates at 3000 per well and cultured at 37° C. for 18 hours. Test compounds were dissolved and diluted to 300× in DMSO then diluted 1:40 in DMEM. Cells were incubated with test compounds for 72 hours followed by incubation with tetrazolium compound (3-(4,5-dimethylthiazol-2-yl)-5-(3-carboxymethoxyphenyl)-2-(4-sulfophenyl)-2H-tetrazolium, inner salt; MTS) and the electron coupling reagent, phenazine methosulfate (PMS) for 4 hours. […] The ability of compounds to inhibit cell growth in this assay is correlated with the reduction of dehydrogenase enzyme activity found in metabolically active cells. The measurement of the absorbance of the formazan was assessed using an ENVISION™ (Perkin Elmer) microplate reader at 492 nm. The calculated IC50 value is the concentration of the test compound that causes a 50% decrease in the absorbance.
On the technique in general: Formazan colour is commonly taken as a measure of viable cells.

In a further assay the test system is KATO III. In words: MTS assay, KATO III cells. Conditions: Homo sapiens, 72 hours, read-out: KATO III, MTS cell kill % inhibition. Format: cell-based. As for the experimental part:
as §1

Another assay concerns NCI-H1299. Description: MTS assay, NCI-H1299 cells. The format is cell-based. The following applies: Homo sapiens, 72 hours, read-out: NCI-H1299, MTS cell kill % inhibition. The method, then:
as §1

The next assay addresses IGF-1R (Homo sapiens, UniProt P08069). In words: IGFR1 activity assay (ELISA). The format is biochemical. The following applies: read-out: IGF-1R, PCT INH (30 μM), ELISA. As for the experimental part:
The disclosed compounds were assayed for their ability to inhibit insulin-like growth factor receptor-1 (IGFR1). Nunc Maxisorb plates were coated with streptavidin by overnight incubation with 100 μL per well of 1 μg/ml Streptavidin in DPBS. Prior to the start of the experiment, the plates were washed with TBST (3×200 μL) and blocked for at least 1 hour by adding 150 μL of 5% BSA/TBST. The plates were washed with TBST (3×200 μL/well) and left to dry immediately before the capture step.
The disclosed test articles and controls (Staurosporine) were prepared using the following assay buffer at 3× desired final concentration (50 mM Tris-HCl, 0.02 mg/ml BSA, 10 mM MgCl2, 0.1 mM Na3VO4, 1 mM EGTA, 12.5 μM ATP, 0.01% NP-40, 1 mM DTT in 10% glycerol/water). 20 μL of the test compounds (or control), 20 μL IGF1R (0.33 ng/μL final concentration), and 20 μL of Pyk-2 (0.05 ng/μL final concentration) were rapidly added to the reaction plate. The plate was incubated at room temperature for one hour.
50 μL was transferred from the reaction plate to the streptavidin coated plate. The capture plate was incubated at room temperature for 30 minutes, then washed with TBST three times. 100 μL/well of Cell Signaling anti-phospho tyrosine was added to the capture plate at a dilution of 1:3000 in 2% BSA/TBST. The plate was incubated for one hour at room temperature then washed 6× with TBST. 100 μL/well of alkaline phosphatase tagged goat anti mouse antibody was added to the capture plate at a dilution of 1:4000 in 2% BSA/TBST. The plate was incubated for one hour at room temperature then washed with TBST six times.
The fluorescent readout is initiated by the addition of 100 μL/well of Attophos reagent (6 mg/10 mL). The reading is done on the Perkin Elmer Envision system.
Background: In an ELISA, binding on a coated surface is turned into a signal by an enzyme label.

Another assay deals with MDA-MB-231. In words: MTS assay, MDA-MB-231 cells. Format: cell-based. Conditions: Homo sapiens, 72 hours, read-out: MDA-MB-231, MTS cell kill % inhibition. The method, then: as §1

Sequence of IGF-1R (P08069 31-1367): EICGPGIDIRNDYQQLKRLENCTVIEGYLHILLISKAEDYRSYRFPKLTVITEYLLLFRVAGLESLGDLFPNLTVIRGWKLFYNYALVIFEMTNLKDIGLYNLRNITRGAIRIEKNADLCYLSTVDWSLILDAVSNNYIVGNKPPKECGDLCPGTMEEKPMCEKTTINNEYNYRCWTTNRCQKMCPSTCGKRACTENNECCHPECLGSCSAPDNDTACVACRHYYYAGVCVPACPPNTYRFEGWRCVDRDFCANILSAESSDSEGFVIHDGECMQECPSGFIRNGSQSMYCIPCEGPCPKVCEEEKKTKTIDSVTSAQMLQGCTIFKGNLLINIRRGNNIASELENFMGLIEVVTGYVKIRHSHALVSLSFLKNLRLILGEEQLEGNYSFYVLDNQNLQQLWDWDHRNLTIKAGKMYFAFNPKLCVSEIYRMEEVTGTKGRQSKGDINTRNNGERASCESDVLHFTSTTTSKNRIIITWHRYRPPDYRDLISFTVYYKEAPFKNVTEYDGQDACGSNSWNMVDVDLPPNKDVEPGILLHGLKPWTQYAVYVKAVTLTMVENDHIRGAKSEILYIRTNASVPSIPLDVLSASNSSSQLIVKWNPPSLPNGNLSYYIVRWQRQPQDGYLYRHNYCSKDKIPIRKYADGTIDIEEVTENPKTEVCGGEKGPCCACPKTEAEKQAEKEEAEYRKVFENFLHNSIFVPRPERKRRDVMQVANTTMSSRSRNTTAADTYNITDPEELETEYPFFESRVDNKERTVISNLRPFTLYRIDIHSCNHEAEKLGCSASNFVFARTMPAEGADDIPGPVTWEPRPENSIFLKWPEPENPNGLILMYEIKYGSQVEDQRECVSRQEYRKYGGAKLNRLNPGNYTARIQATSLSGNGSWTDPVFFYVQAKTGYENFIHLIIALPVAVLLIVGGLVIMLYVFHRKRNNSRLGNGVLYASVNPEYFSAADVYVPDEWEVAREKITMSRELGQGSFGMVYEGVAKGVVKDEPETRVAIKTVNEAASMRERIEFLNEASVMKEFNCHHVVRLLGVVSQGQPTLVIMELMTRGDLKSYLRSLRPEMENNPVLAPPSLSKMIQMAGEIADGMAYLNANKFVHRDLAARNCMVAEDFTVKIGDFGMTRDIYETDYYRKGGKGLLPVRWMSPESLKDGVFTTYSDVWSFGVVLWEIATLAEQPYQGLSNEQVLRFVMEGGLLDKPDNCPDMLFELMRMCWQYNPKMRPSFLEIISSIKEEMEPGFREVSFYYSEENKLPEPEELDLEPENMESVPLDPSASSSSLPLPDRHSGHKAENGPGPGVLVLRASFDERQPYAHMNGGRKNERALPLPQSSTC

Consider `COc1ccc(-c2c(-c3ccc[nH]c3=O)[nH]c3ccc(C(=O)NCCCN4CCOCC4)cc23)c(OC)c1` [Compound 81, 3-(2,4-dimethoxyphenyl)-N-(3-morpholin-4-ylpropyl)-2-(2-oxo-1,2-dihydropyridin-3-yl)-1H-indole-5-carboxamide], for which the inhibition at 10 µM with DLD-1, in the assay with KATO III and in the assay with NCI-H1299 was below 50% each time. Further, the inhibition at 30 µM at IGF-1R is 80 to 100%.

`O=C(NCCCN1CCOCC1)c1ccc2[nH]c(-c3ccc[nH]c3=O)c(-c3cccc(Cl)c3)c2c1` [Compound 62, 3-(3-chlorophenyl)-N-(3-morpholin-4-ylpropyl)-2-(2-oxo-1,2-dihydropyridin-3-yl)-1H-indole-5-carboxamide]: the inhibition at 10 µM in the assay on DLD-1, in the assay on KATO III, in the assay on MDA-MB-231 and in the assay with NCI-H1299 was 80 to 100% throughout. The inhibition at 30 µM at IGF-1R was in the range of 80 to 100%.

Regarding `COc1cccc(-c2c(-c3ccc[nH]c3=O)[nH]c3ccc(C(=O)NCCCN4CCOCC4)cc23)c1` [Compound 63, 3-(3-methoxyphenyl)-N-(3-morpholin-4-ylpropyl)-2-(2-oxo-1,2-dihydropyridin-3-yl)-1H-indole-5-carboxamide], the inhibition at 10 µM in the assay with DLD-1 fell in the range of 50 to 79%; in the assay on KATO III, 80 to 100%; with MDA-MB-231, 50 to 79%; in the assay with NCI-H1299, 80 to 100%. In addition, the inhibition at 30 µM on IGF-1R lay in the range of 80 to 100%.

Turning to `CN1CCC(N2CCN(C(=O)c3ccc4[nH]c(-c5ccc[nH]c5=O)c(-c5ccc(-c6ccccc6)cc5)c4c3)CC2)CC1` [Compound 50, 3-(3-biphenyl-4-yl-5-{[4-(1-methylpiperidin-4-yl)piperazin-1-yl]carbonyl}-1H-indol-2-yl)pyridin-2(1H)-one], the inhibition at 10 µM in the assay with DLD-1, in the assay on KATO III, in the assay on MDA-MB-231 and in the assay with NCI-H1299 was 80 to 100% each time. Moreover, the inhibition at 30 µM at IGF-1R lay in the range of 50 to 79%.

As for `O=C(NCCCN1CCOCC1)c1ccc2[nH]c(-c3ccc[nH]c3=O)c(-c3ccc(F)cc3)c2c1` [Compound 68, 3-(4-fluorophenyl)-N-(3-morpholin-4-ylpropyl)-2-(2-oxo-1,2-dihydropyridin-3-yl)-1H-indole-5-carboxamide], the inhibition at 10 µM in the assay on DLD-1 was below 50%; in the assay with KATO III it was below 50%; in the assay with MDA-MB-231 it was below 50%; in the assay with NCI-H1299, 50 to 79%. Further, the inhibition at 30 µM on IGF-1R was 80 to 100%.

Consider `O=C(NCCCN1CCOCC1)c1ccc2[nH]c(-c3ccc[nH]c3=O)c(-c3ccc(F)c(F)c3)c2c1` [Compound 61, 3-(3,4-difluorophenyl)-N-(3-morpholin-4-ylpropyl)-2-(2-oxo-1,2-dihydropyridin-3-yl)-1H-indole-5-carboxamide], for which the inhibition at 10 µM in the assay with DLD-1, in the assay with KATO III, in the assay with MDA-MB-231 and in the assay with NCI-H1299 was 80 to 100% in each case. Besides, at IGF-1R, the inhibition at 30 µM fell in the range of 80 to 100%.

Regarding `O=C(NCc1ccc(F)cc1F)c1ccc2[nH]c(-c3ccc[nH]c3=O)c(-c3ccccc3)c2c1` [Compound 10, N-(2,4-difluorobenzyl)-2-(2-oxo-1,2-dihydropyridin-3-yl)-3-phenyl-1H-indole-5-carboxamide], the inhibition at 10 µM was 80 to 100% in the assay on DLD-1, 80 to 100% with KATO III, below 50% in the assay on MDA-MB-231 and 80 to 100% with NCI-H1299. In addition, the inhibition at 30 µM at IGF-1R was in the range of 80 to 100%.

Regarding `CN1CCN(C(=O)c2ccc3[nH]c(-c4ccc[nH]c4=O)c(-c4ccc(-c5ccccc5)cc4)c3c2)CC1` [Compound 52, 3-{3-biphenyl-4-yl-5-[(4-methylpiperazin-1-yl)carbonyl]-1H-indol-2-yl}pyridin-2(1H)-one], the inhibition at 10 µM in the assay with DLD-1, in the assay on KATO III, with MDA-MB-231 and in the assay with NCI-H1299 was 80 to 100% each time. Further, on IGF-1R, the inhibition at 30 µM fell in the range of 80 to 100%.

On to `O=C(NCCOc1ccccc1)c1ccc2[nH]c(-c3ccc[nH]c3=O)c(-c3ccccc3)c2c1` [Compound 31, 2-(2-oxo-1,2-dihydropyridin-3-yl)-N-(2-phenoxyethyl)-3-phenyl-1H-indole-5-carboxamide], for which the inhibition at 10 µM is 50 to 79% in the assay on DLD-1, 80 to 100% in the assay on KATO III, below 50% in the assay with MDA-MB-231 and 80 to 100% with NCI-H1299. At IGF-1R, the inhibition at 30 µM lay within 80 to 100%.

Consider `O=C(NCCCN1CCOCC1)c1ccc2[nH]c(-c3ccc[nH]c3=O)c(-c3ccc(F)cc3F)c2c1` [Compound 77, 3-(2,4-difluorophenyl)-N-(3-morpholin-4-ylpropyl)-2-(2-oxo-1,2-dihydropyridin-3-yl)-1H-indole-5-carboxamide], for which the inhibition at 10 µM in the assay on DLD-1, with KATO III, in the assay on MDA-MB-231 and with NCI-H1299 was below 50% throughout. Moreover, the inhibition at 30 µM on IGF-1R was in the range of 80 to 100%.

For `CCOC(=O)N1CCN(C(=O)c2ccc3[nH]c(-c4ccc[nH]c4=O)c(-c4ccccc4)c3c2)CC1` [Compound 24, ethyl 4-{[2-(2-oxo-1,2-dihydropyridin-3-yl)-3-phenyl-1H-indol-5-yl]carbonyl}piperazine-1-carboxylate], the figures for the inhibition at 10 µM in the assay on DLD-1, with KATO III and in the assay on NCI-H1299 were 50 to 79%, 80 to 100% and 50 to 79%, respectively. Also, the inhibition at 30 µM on IGF-1R was 80 to 100%.

`O=C(c1ccc2[nH]c(-c3ccc[nH]c3=O)c(-c3ccccc3)c2c1)N1CCN(c2cnccn2)CC1` [Compound 25, 3-{3-phenyl-5-[(4-pyrazin-2-ylpiperazin-1-yl)carbonyl]-1H-indol-2-yl}pyridin-2(1H)-one]: the inhibition at 10 µM lay within 50 to 79% in the assay with DLD-1, 80 to 100% with KATO III and 50 to 79% in the assay with NCI-H1299. Further, the inhibition at 30 µM on IGF-1R is 80 to 100%.

As for `CN(C)CCCNC(=O)c1ccc2[nH]c(-c3ccc[nH]c3=O)c(-c3ccc(-c4ccccc4)cc3)c2c1` [Compound 49, 3-biphenyl-4-yl-N-[3-(dimethylamino)propyl]-2-(2-oxo-1,2-dihydropyridin-3-yl)-1H-indole-5-carboxamide], the inhibition at 10 µM in the assay on DLD-1, with KATO III, with MDA-MB-231 and in the assay with NCI-H1299 was 80 to 100% each time.

Regarding `COc1cc2c(cc1OC)CN(C(=O)c1ccc3[nH]c(-c4ccc[nH]c4=O)c(-c4ccccc4)c3c1)CC2` [Compound 21, 3-{5-[(6,7-dimethoxy-3,4-dihydroisoquinolin-2(1H)-yl)carbonyl]-3-phenyl-1H-indol-2-yl}pyridin-2(1H)-one], the inhibition at 10 µM with DLD-1 was in the range of 50 to 79%; with KATO III, 80 to 100%; in the assay with NCI-H1299, 80 to 100%. Besides, the inhibition at 30 µM on IGF-1R was below 50%.

With `O=C(NCc1ccc(F)cc1F)c1ccc2[nH]c(-c3ccc[nH]c3=O)c(-c3ccc(-c4ccccc4)cc3)c2c1` [Compound 34, 3-biphenyl-4-yl-N-(2,4-difluorobenzyl)-2-(2-oxo-1,2-dihydropyridin-3-yl)-1H-indole-5-carboxamide], the inhibition at 10 µM in the assay with DLD-1 was 50 to 79%; with KATO III, 80 to 100%; with MDA-MB-231 it was 50 to 79%; with NCI-H1299 it was 50 to 79%.

For `O=C(c1ccc2[nH]c(-c3ccc[nH]c3=O)c(-c3ccccc3)c2c1)N1CCN(c2ccccc2F)CC1` [Compound 14, 3-(5-{[4-(2-fluorophenyl)piperazin-1-yl]carbonyl) -3-phenyl-1H-indol-2-yl)pyridin-2(1H)-one], the inhibition at 10 µM in the assay on DLD-1 lay in the range of 50 to 79%; in the assay on KATO III, 80 to 100%; in the assay on NCI-H1299, 50 to 79%. Further, on IGF-1R, the inhibition at 30 µM was in the range of 80 to 100%.
